Patent US4103082A, “Aminocyclitol derivatives and process for producing the same” (priority 1975, dated 1978)
Values after ≈ are worked out from the molar mass of the structure shown.

Experiments:
[1] = tested on: Enterococcus species C73-17; assay: antibacterial activity (Minimum Inhibitory Concentration); type: cell-based; conditions: Enterococcus, C7317
Pseudomonas 1007 = assay: paper disk method, inhibitory zone diameter; type: cell-based; conditions: Pseudomonas, 1007; 2000 γ/ml; read-out: inhibitory zone diameter
[2] = tested on: Staphylococcus aureus No. 26; assay: antibacterial activity (Minimum Inhibitory Concentration); type: cell-based; conditions: Staphylococcus aureus, NO.26
Klebsiella 6 = assay: paper disk method, inhibitory zone diameter; type: cell-based; conditions: Klebsiella, 6; 2000 γ/ml; read-out: inhibitory zone diameter
[3] = tested on: Staphylococcus albus PCI-1200A; assay: antibacterial activity (Minimum Inhibitory Concentration); type: cell-based; conditions: PCI1200A; Staphylococcus albus PCI-1200A; read-out: MIC
[4] = tested on: Bacillus subtilis ATCC 6633; assay: paper disk method, inhibitory zone diameter; type: cell-based; conditions: read-out: inhibitory zone diameter
[5] = tested on: Staphylococcus aureus C73-21; assay: antibacterial activity (Minimum Inhibitory Concentration); type: cell-based; conditions: C7321; Staphylococcus aureus C73-21; read-out: MIC
E. coli C73-12 = assay: as above; type: cell-based; conditions: Escherichia coli, C7312
[6] = tested on: Staphylococcus aureus Smith S-424; assay: as above; type: cell-based; conditions: SMITHS424; Staphylococcus aureus Smith S-424; read-out: MIC
Klebsiella pneumoniae = assay: as above; type: cell-based
Proteus species C73-25 = assay: as above; type: cell-based; conditions: Proteus species C73-25; read-out: MIC
[7] = tested on: Enterococcus species C73-33; assay: as above; type: cell-based; conditions: Enterococcus, C7333
[8] = tested on: Vibrio parahaemolyticus K-3; assay: as above; type: cell-based; conditions: K3; Vibrio parahaemolyticus K-3; read-out: MIC
[9] = tested on: Shigella dysenteriae Shigae; assay: microbe, parasite or virus in culture; type: cell-based
male ICR mice = assay: acute toxicity; conditions: intravenous administration, 200 mg/kg
E. coli C73-4 = assay: antibacterial activity (Minimum Inhibitory Concentration); type: cell-based; conditions: Escherichia coli, C734; E. coli C73-4; read-out: MIC
[10] = tested on: Staphylococcus aureus C73-10; assay: as above; type: cell-based; conditions: Staphylococcus aureus, C7310
E. coli C73-1 = assay: as above; type: cell-based; conditions: Escherichia coli, C731; E. coli C73-1; read-out: MIC
[11] = tested on: Staphylococcus aureus C73-4; assay: as above; type: cell-based; conditions: Staphylococcus aureus, C734
Mycobacterium 607 = assay: paper disk method, inhibitory zone diameter; type: cell-based; conditions: Mycobacterium, 607, read-out: inhibitory zone diameter
E. coli K-12 = assay: paper disk method, inhibitory zone diameter; type: cell-based; conditions: Escherichia coli, K12, read-out: inhibitory zone diameter
Proteus species C73-33 = assay: antibacterial activity (Minimum Inhibitory Concentration); type: cell-based; conditions: Proteus species C73-33; read-out: MIC
Klebsiella 7 = assay: paper disk method, inhibitory zone diameter; type: cell-based; conditions: Klebsiella, 7; 2000 γ/ml; read-out: inhibitory zone diameter
[12] = tested on: Bacillus subtilis ATCC 6633; assay: antibacterial activity (Minimum Inhibitory Concentration); type: cell-based; conditions: ATCC6633; Bacillus subtilis ATCC 6633; read-out: MIC
[13] = tested on: Staphylococcus aureus 209P JC-1; assay: as above; type: cell-based; conditions: Staphylococcus aureus 209P JC-1; read-out: MIC
[14] = tested on: Vibrio parahaemolyticus K-5; assay: as above; type: cell-based; conditions: K5; Vibrio parahaemolyticus K-5; read-out: MIC
[15] = tested on: Vibrio parahaemolyticus K-7; assay: as above; type: cell-based; conditions: K7; Vibrio parahaemolyticus K-7; read-out: MIC
Proteus morganii Kono = assay: as above; type: cell-based; conditions: Morganella morganii
microorganisms indicated = assay: antimicrobial activities, paper disk method (general statement); type: cell-based; conditions: Tables 1 to 4
Protocol: The inhibitory activities were determined at various concentrations of the compounds using the paper disk method against the microorganisms indicated and the numerical values show the inhibitory zone diameter in terms of mm.

[16] = tested on: Bacillus anthracis No. 119; assay: microbe, parasite or virus in culture; type: cell-based
[17] = tested on: Salmonella species C73-30; assay: antibacterial activity (Minimum Inhibitory Concentration); type: cell-based; conditions: C7330
[18] = tested on: E. coli HL-1629 (Kanamycin-resistant strain); assay: microbe, parasite or virus in culture; type: cell-based; conditions: Escherichia coli, read-out: inhibitory zone diameter
Proteus species C73-34 = assay: antibacterial activity (Minimum Inhibitory Concentration); type: cell-based; conditions: Proteus species C73-34; read-out: MIC
Proteus species C73-23 = assay: as above; type: cell-based; conditions: Proteus species C73-23; read-out: MIC

## NC[C@H]1O[C@H](O[C@H]2C[C@@H](O)[C@H](N)C[C@@H]2N)[C@H](N)[C@@H](O)[C@@H]1O [5-Deoxyneamine, 5-deoxyneamine]
[1]
  MIC: 6.25 µg/mL (≈ 20.4 µM)
Pseudomonas 1007
  zone of inhibition at 2000 µg/mL: 0 mm
[2]
  MIC: 1.56 µg/mL (≈ 5.09 µM)
Klebsiella 6
  zone of inhibition at 2000 µg/mL: 0 mm
[3]
  MIC: 0.2 µg/mL (≈ 0.653 µM)
[4]; ATCC6633, 7.8 γ/ml
  zone of inhibition at 7.8 µg/mL: 11.2 mm
[4]; ATCC6633, 15.6 γ/ml
  zone of inhibition at 15.6 µg/mL: 13.8 mm
[4]; ATCC6633, 31.2 γ/ml
  zone of inhibition at 31.2 µg/mL: 15.7 mm
[4]; ATCC6633, 62.5 γ/ml
  zone of inhibition at 62.5 µg/mL: 20.5 mm
[4]; ATCC6633, 125 γ/ml
  zone of inhibition at 125 µg/mL: 23.2 mm
[4]; ATCC6633, 250 γ/ml
  zone of inhibition at 250 µg/mL: 25.6 mm
[4]; ATCC6633, 500 γ/ml
  zone of inhibition at 500 µg/mL: 28.3 mm
[4]; ATCC6633, 1000 γ/ml
  zone of inhibition at 1000 µg/mL: 30.8 mm
[4]; ATCC6633, 2000 γ/ml
  zone of inhibition at 2000 µg/mL: 33.4 mm
[5]
  MIC: 0.2 µg/mL (≈ 0.653 µM)
E. coli C73-12
  MIC: 6.25 µg/mL (≈ 20.4 µM)
[6]
  MIC: 0.78 µg/mL (≈ 2.55 µM)
Klebsiella pneumoniae
  MIC: 6.25 µg/mL (≈ 20.4 µM)
Proteus species C73-25
  MIC: 3.13 µg/mL (≈ 10.2 µM)
[7]
  MIC: 6.25 µg/mL (≈ 20.4 µM)
[8]
  MIC: 0.39 µg/mL (≈ 1.27 µM)
[9]
  MIC: 6.25 µg/mL (≈ 20.4 µM)
Male ICR mice
  acute toxicity, survival: all male ICR mice were survived
E. coli C73-4
  MIC: 12.5 µg/mL (≈ 40.8 µM)
[10]
  MIC: 1.56 µg/mL (≈ 5.09 µM)
E. coli C73-1
  MIC: 12.5 µg/mL (≈ 40.8 µM)
[11]
  MIC: 1.56 µg/mL (≈ 5.09 µM)
Mycobacterium 607; 62.5 γ/ml
  zone of inhibition at 62.5 µg/mL: 0 mm
Mycobacterium 607; 125 γ/ml
  zone of inhibition at 125 µg/mL: 0 mm
Mycobacterium 607; 250 γ/ml
  zone of inhibition at 250 µg/mL: 10.4 mm
Mycobacterium 607; 500 γ/ml
  zone of inhibition at 500 µg/mL: 16.4 mm
Mycobacterium 607; 1000 γ/ml
  zone of inhibition at 1000 µg/mL: 22 mm
Mycobacterium 607; 2000 γ/ml
  zone of inhibition at 2000 µg/mL: 26.8 mm
E. coli K-12; 7.8 γ/ml
  zone of inhibition at 7.8 µg/mL: 0 mm
E. coli K-12; 15.6 γ/ml
  zone of inhibition at 15.6 µg/mL: 0 mm
E. coli K-12; 31.2 γ/ml
  zone of inhibition at 31.2 µg/mL: 12.1 mm
E. coli K-12; 62.5 γ/ml
  zone of inhibition at 62.5 µg/mL: 14.7 mm
E. coli K-12; 125 γ/ml
  zone of inhibition at 125 µg/mL: 17.2 mm
E. coli K-12; 250 γ/ml
  zone of inhibition at 250 µg/mL: 18.7 mm
E. coli K-12; 500 γ/ml
  zone of inhibition at 500 µg/mL: 22 mm
E. coli K-12; 1000 γ/ml
  zone of inhibition at 1000 µg/mL: 24.5 mm
E. coli K-12; 2000 γ/ml
  zone of inhibition at 2000 µg/mL: 26.6 mm
Proteus species C73-33
  MIC: 50 µg/mL (≈ 163 µM)
Klebsiella 7
  zone of inhibition at 2000 µg/mL: 0 mm
[12]
  MIC: 0.39 µg/mL (≈ 1.27 µM)
[13]
  MIC: 0.39 µg/mL (≈ 1.27 µM)
[14]
  MIC: 12.5 µg/mL (≈ 40.8 µM)
[15]
  MIC: 12.5 µg/mL (≈ 40.8 µM)
Proteus morganii Kono
  MIC: 6.25 µg/mL (≈ 20.4 µM)
Microorganisms indicated
  antimicrobial activities relative to neamine: superior to those of the parent compound neamine
[16]
  MIC: 1.56 µg/mL (≈ 5.09 µM)
[17]
  MIC: 12.5 µg/mL (≈ 40.8 µM)
[18]
  zone of inhibition at 1000 µg/mL: 0 mm
  zone of inhibition at 2000 µg/mL: 13.9 mm
Proteus species C73-34
  MIC: 12.5 µg/mL (≈ 40.8 µM)
Proteus species C73-23
  MIC: 12.5 µg/mL (≈ 40.8 µM)
